Legend:
Format in all cases: toxicity, cell-based
HEK-293T = assay: Incucyte cell viability with HEK293T; settings: human, 10 µM, compound concentration 10 uM
Fibroblast = assay: Incucyte cell viability with human fibroblast; settings: 10 µM, compound concentration 10 uM
U2OS = assay: Incucyte cell viability with U2OS; settings: human, 10 µM, compound concentration 10 uM
Further: unitless GR value; below 1 slowed growth and below 0 cell loss.

SMILES	Growth Rate (HEK-293T; 6 h, replicate number 1)	Growth Rate (HEK-293T; 6 h, replicate number 2)	Growth Rate (HEK-293T; 12 h, replicate number 1)	Growth Rate (HEK-293T; 12 h, replicate number 2)	Growth Rate (HEK-293T; 18 h, replicate number 1)	Growth Rate (HEK-293T; 18 h, replicate number 2)	Growth Rate (HEK-293T; 24 h, replicate number 1)	Growth Rate (HEK-293T; 24 h, replicate number 2)	Growth Rate (Fibroblast; 6 h, replicate number 1)	Growth Rate (Fibroblast; 12 h, replicate number 1)	Growth Rate (Fibroblast; 12 h, replicate number 2)	Growth Rate (Fibroblast; 18 h, replicate number 1)	Growth Rate (Fibroblast; 24 h, replicate number 1)	Growth Rate (U2OS; 0 h, replicate number 2)	Growth Rate (U2OS; 6 h, replicate number 1)	Growth Rate (U2OS; 12 h, replicate number 1)	Growth Rate (U2OS; 12 h, replicate number 2)	Growth Rate (U2OS; 24 h, replicate number 1)	Growth Rate (Fibroblast; 18 h, replicate number 2)	Growth Rate (U2OS; 0 h, replicate number 1)	further results
Cn1nc(-c2ccc(C(N)=O)cc2)c2ccccc2c1=O	0.11	0.45	0.75	0.4	0.73	0.55	0.79	0.74	0.25	0.99	0.65	0.84	1	0.98	0.58	0.8	0.97	0.96	–	–	Growth Rate (U2OS; 18 h, replicate number 1): 0.93
Cc1cc(=O)oc2cc(NC(=O)[C@H](Cc3ccc(I)cc3)NC(=O)[C@H]3N[C@@H]4CC[C@H]3C4)ccc12.O=C(O)C(F)(F)F	-0.02	–	0.55	–	0.61	–	0.76	–	–	–	0.19	–	–	–	0.26	0.89	–	0.88	0.35	-0.48	Growth Rate (Fibroblast; 0 h, replicate number 1): -1; Growth Rate (Fibroblast; 6 h, replicate number 2): -0.13; Growth Rate (Fibroblast; 24 h, replicate number 2): 0.61; Growth Rate (U2OS; 18 h, replicate number 1): 0.97; Growth Rate (U2OS; 18 h, replicate number 2): 0.92; Growth Rate (U2OS; 24 h, replicate number 2): 0.85
O=C(Nc1cccc(C(F)(F)F)c1)c1cccc(-n2cc(-c3ccco3)nn2)c1	0.68	0.56	0.8	1	0.67	–	0.76	–	0.82	–	–	–	0.97	0.15	0.72	0.78	0.81	0.9	–	–	Growth Rate (Fibroblast; 0 h, replicate number 2): -0.94; Growth Rate (U2OS; 18 h, replicate number 2): 0.95
CCOC(=O)/N=C(\N)c1ccc(OCc2cccc(COc3ccc(C(C)(C)c4ccc(OC(=O)OCC)cc4)cc3)c2)cc1	-0.49	-0.42	0.04	-0.1	0.49	0.08	0.77	0.11	0.42	0.73	0.87	0.66	0.41	–	0.84	–	–	–	0.76	–	Growth Rate (Fibroblast; 0 h, replicate number 1): -0.98; Growth Rate (Fibroblast; 6 h, replicate number 2): -0.28; Growth Rate (Fibroblast; 24 h, replicate number 2): 0.79
CN1C(=O)Cc2ccc(-c3ccc(C[C@@H](C#N)NC(=O)[C@@H]4N[C@H]5CC[C@@H]4C5)c(F)c3)cc21	0.06	0.52	0.07	0.61	0.19	0.73	0.28	0.82	0.38	0.46	0.99	0.42	0.61	–	0.89	–	–	–	–	0.98	–
CCN1C(=O)/C(=C(\NC2CCN(C)CC2)c2ccc3c(c2)OCO3)c2cc(C(C)=O)ccc21	0.44	0.16	0.64	0.78	0.63	0.77	0.71	–	0.42	0.32	0.27	0.7	0.64	-0.34	0.59	–	0.81	0.89	0.5	0.46	Growth Rate (Fibroblast; 0 h, replicate number 1): -1; Growth Rate (Fibroblast; 6 h, replicate number 2): 0.53; Growth Rate (Fibroblast; 24 h, replicate number 2): 0.76; Growth Rate (U2OS; 6 h, replicate number 2): 0.61; Growth Rate (U2OS; 24 h, replicate number 2): 0.95
O=C(N[C@H](Cc1ccccc1)C(=O)O)c1cccc(OCc2cccnc2)c1.O=CO	0.73	–	–	–	1	–	–	–	0.68	0.47	0.7	0.93	0.88	0.39	0.69	0.66	0.77	0.8	0.81	0.75	Growth Rate (U2OS; 6 h, replicate number 2): 0.67; Growth Rate (U2OS; 18 h, replicate number 2): 0.98; Growth Rate (U2OS; 24 h, replicate number 2): 0.86

Source: ChEMBL document CHEMBL5303304, “EUbOPEN Chemogenomics Library - IncuCyte” (2023)
